Test results as given in patent US11472795B2, “1H-indazole-3-carboxamide compounds as glycogen synthase kinase 3 beta inhibitors” (AZIENDE CHIMICHE RIUNITE ANGELINI FRANCESCO—A.C.R.A.F. …, priority 2018, dated 2022).

Columns and labels:
human GSK-3β = human GSK-3β (Homo sapiens (Human), UniProt P49841); assay: Test I - Activity on human GSK-3β (LANCE substrate phosphorylation); format: biochemical; conditions: human recombinant GSK-3β, 90 minutes at 22° C., five concentrations 10 μM to 1 nM, duplicate; read-out: GSK-33 IC50
Protocol: Human recombinant enzyme GSK-3β was incubated for 90 minutes at 22° C. in the presence of compounds or vehicle in a reaction buffer containing ATP plus 100 nM unphosphorylated specific substrate peptide (Ulight-[…]-amide). Substrate phosphorylation was measured by LANCE technology (PerkinElmer, CT, USA).

hERG ion channel = hERG ion channel (Homo sapiens (Human), UniProt Q12809)
Protocol: (2006), Expert Opin. Ther. Targets, 10 (2): 230-241 using the recombinant human cell line CHO-K1, which stably expresses the hERG ion channel.
The degree of inhibition (%) was obtained by measuring the tail current amplitude, which is induced by a one second test pulse to −40 mV after a two second pulse to +20 mV, before and after drug incubation (the difference current was normalized to control and multiplied by 100 to obtain the percent of inhibition). […] The concentration response relationship of each compound was constructed from the percentage reductions of current amplitude by sequential concentrations.

human GSK-3β, sequence (P49841 whole entry): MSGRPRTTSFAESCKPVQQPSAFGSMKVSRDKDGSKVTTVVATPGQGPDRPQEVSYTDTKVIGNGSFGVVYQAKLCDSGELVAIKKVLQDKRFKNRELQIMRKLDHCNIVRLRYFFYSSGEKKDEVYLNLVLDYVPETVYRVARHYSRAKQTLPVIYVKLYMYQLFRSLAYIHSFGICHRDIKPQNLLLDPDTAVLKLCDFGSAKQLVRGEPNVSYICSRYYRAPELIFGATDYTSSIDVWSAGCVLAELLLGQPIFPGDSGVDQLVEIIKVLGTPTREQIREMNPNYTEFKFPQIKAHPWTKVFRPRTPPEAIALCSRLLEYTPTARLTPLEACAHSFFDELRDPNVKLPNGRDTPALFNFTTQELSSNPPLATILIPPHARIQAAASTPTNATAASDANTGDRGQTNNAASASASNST
hERG ion channel, sequence (Q12809 whole entry): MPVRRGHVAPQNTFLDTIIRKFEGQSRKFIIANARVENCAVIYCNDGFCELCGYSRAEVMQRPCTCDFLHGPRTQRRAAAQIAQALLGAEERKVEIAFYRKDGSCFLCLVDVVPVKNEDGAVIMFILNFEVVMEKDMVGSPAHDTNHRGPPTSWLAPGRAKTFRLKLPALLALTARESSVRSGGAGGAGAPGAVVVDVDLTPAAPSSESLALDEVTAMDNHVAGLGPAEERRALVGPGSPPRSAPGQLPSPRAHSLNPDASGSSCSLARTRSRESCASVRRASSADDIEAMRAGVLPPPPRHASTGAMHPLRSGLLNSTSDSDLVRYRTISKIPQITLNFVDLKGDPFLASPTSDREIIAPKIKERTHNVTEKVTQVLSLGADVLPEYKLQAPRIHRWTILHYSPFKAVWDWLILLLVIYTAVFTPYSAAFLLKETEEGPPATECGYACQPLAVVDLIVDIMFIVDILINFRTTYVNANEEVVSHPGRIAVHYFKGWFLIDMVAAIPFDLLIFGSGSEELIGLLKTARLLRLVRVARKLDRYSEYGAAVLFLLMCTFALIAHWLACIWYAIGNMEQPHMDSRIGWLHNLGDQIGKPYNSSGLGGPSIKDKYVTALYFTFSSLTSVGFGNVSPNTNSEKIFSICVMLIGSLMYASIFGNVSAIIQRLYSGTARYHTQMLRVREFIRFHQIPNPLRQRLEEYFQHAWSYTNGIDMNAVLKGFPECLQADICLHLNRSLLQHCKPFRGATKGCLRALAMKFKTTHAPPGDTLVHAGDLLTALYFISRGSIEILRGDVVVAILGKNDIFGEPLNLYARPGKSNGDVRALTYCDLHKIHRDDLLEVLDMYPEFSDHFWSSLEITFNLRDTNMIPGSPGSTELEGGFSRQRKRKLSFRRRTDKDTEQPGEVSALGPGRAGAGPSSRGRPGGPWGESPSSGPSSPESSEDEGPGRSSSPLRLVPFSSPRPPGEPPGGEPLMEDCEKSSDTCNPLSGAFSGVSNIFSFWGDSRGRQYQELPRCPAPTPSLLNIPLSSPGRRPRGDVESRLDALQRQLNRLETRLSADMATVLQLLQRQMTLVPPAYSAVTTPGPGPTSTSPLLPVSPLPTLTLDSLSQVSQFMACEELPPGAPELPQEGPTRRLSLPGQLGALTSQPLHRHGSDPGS

Row | SMILES | IC50 (human GSK-3β) | IC50 (hERG ion channel) | hERG/GSK-3β Ratio (hERG ion channel)
1 | CC(C)Oc1cncc(-c2ccc3[nH]nc(C(=O)NCC4CCOC4)c3c2)c1 (centres unmarked) [Compound 4, 5-(5-Isopropoxypyridin-3-yl)-N-((tetrahydrofuran-3-yl)methyl)-1H-indazole-3-carboxamide] | 17 nM | 6200 nM | 365
2 | COCc1cncc(-c2ccc3[nH]nc(C(=O)NCC4CCS(=O)(=O)C4)c3c2)c1 (centres unmarked) [Compound 5] | 16 nM | > 100000 nM | –
3 | O=C(NC1CCS(=O)(=O)C1)c1n[nH]c2ccc(-c3cncc(CO)c3)cc12 (centres unmarked) [Compound 6, 5-(5-(Hydroxymethyl)pyridin-3-yl)-N-(1,1-dioxidotetrahydrothiophen-3-yl)-1H-indazole-3-carboxamide] | 17 nM | > 100000 nM | –
4 | CC(C)Oc1cncc(-c2ccc3[nH]nc(C(=O)NCC4CCS(=O)(=O)C4)c3c2)c1 (centres unmarked) [Compound 11] | 12 nM | 5400 nM | 450
5 | O=C(NCC1CCCCO1)c1n[nH]c2ccc(-c3cccc(F)c3F)cc12 (centres unmarked) [Compound 14, 5-(2,3-Difluorophenyl)-N-((tetrahydro-2H-pyran-2-yl)methyl)-1H-indazole-3-carboxamide] | 436 nM | > 100000 nM | –
6 | CN(C)Cc1cncc(-c2ccc3[nH]nc(C(=O)NCC4CCOCC4)c3c2)c1 [Compound 16, 5-(5-((Dimethylamino)methyl)pyridin-3-yl)-N-((tetrahydro-2H-pyran-4-yl)methyl)-1H-indazole-3-carboxamide] | 23 nM | 44000 nM | 1,913
7 | O=C(NCC1CCOCC1)c1n[nH]c2ccc(-c3cncc(CN4CCCC4)c3)cc12 [Compound 17, 5-(5-(Pyrrolidin-1-ylmethyl)pyridin-3-yl)-N-((tetrahydro-2H-pyran-4-yl)methyl)-1H-indazole-3-carboxamide] | 17 nM | 6700 nM | 394
8 | O=C(NCC1CCOCC1)c1n[nH]c2ccc(-c3cnccc3CN3CCCC3)cc12 [Compound 19, 5-(4-(Pyrrolidin-1-ylmethyl)pyridin-3-yl)-N-((tetrahydro-2H-pyran-4-yl)methyl)-1H-indazole-3-carboxamide] | 140 nM | 16000 nM | 114
9 | O=C(NCC1CCOCC1)c1n[nH]c2ccc(-c3cnccc3CN3CCOCC3)cc12 [Compound 20, 5-(4-(Morpholinomethyl)pyridin-3-yl)-N-((tetrahydro-2H-pyran-4-yl)methyl)-1H-indazole-3-carboxamide carboxamide] | 18.5 nM | 46000 nM | 2,487
10 | CN(C)Cc1ccncc1-c1ccc2[nH]nc(C(=O)NCC3CCOCC3)c2c1 [Compound 21, 5-(4-((Dimethylamino)methyl)pyridin-3-yl)-N-((tetrahydro-2H-pyran-4-yl)methyl)-1H-indazole-3-carboxamide] | 220 nM | 40000 nM | 182
11 | O=C(NCC1CCOCC1)c1n[nH]c2ccc(-c3cnccc3CN3CCNCC3)cc12 [Compound 24, 5-(4-(piperazin-1-ylmethyl)pyridin-3-yl)-N-((tetrahydro-2H-pyran-4-yl)methyl)-1H-indazole-3-carboxamide] | 120 nM | 93800 nM | 782
12 | O=C(NCC1CCOCC1)c1n[nH]c2ccc(-c3cncc(CN4CCOCC4)c3)cc12 [Compound 27, 5-(5-(morpholinomethyl)pyridin-3-yl)-N-((tetrahydro-2H-pyran-4-yl)methyl)-1H-indazole-3-carboxamide] | 13 nM | 3500 nM | 269
13 | CNCc1cncc(-c2ccc3[nH]nc(C(=O)NCC4CCOCC4)c3c2)c1 [Compound 28, 5-(5-((methylamino)methyl)pyridin-3-yl)-N-((tetrahydro-2H-pyran-4-yl)methyl)-1H-indazole-3-carboxamide] | 6 nM | > 100000 nM | –
